According to patent US20180071317A1, “USE OF AGENTS THAT ALTER THE PERITUMORAL ENVIRONMENT FOR THE TREATMENT OF CANCER” (SERVICIO ANDALUZ DE SALUD, priority 2011, published 2018):

What was measured:
[1] = tested on: macrophages in co-culture with cells isolated from primary human tumors; assay: Marker expression (IHC) in macrophages co-cultured with primary human tumor cells (colon, breast, ovarian, lung carcinoma, melanoma); type: cell-based; details: SP 1 μM + antagonist 1 μM;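 also: macrophages came from pleural or peritoneal washings of the patient who also supplied the tumor cells, and both were co-cultured on fresh blood plasma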
[2] = tested on: fibroblasts (PHF) co-cultured with human glioma tumor cells (GAMG); assay: Marker expression (IHC) in PHF co-cultured with GAMG tumor cells; type: cell-based; details: co-culture with GAMG; SP 1 μM + antagonist 1 μM; 48 h;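 also: percentage of PHF fibroblasts positive for each marker, cultured in fresh plasma from a healthy donor, six replicates, with fibroblasts cultured alone as reference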
Protocol: (§1) All cultures were maintained 48 hours, following which the same cells were included in paraffin blocks for subsequent analysis of the expression of different markers by immunohistochemistry (see Example 1). […] All experiments were carried out sixfold. Analyzed markers in fibroblast cells (stromal cells) were: TGF-α, TGF-β1, TGF-β2, TGF-β3, SPARC, MMP-3, MMP-7, MMP-9, MMP-11, MMP-13 and MMP-14.

[3] = tested on: fibroblasts (PHF) co-cultured with human melanoma tumor cells (MEL-HO1); assay: Marker expression (IHC) in PHF co-cultured with MEL-HO1 tumor cells; type: cell-based; details: PHF co-cultured with MEL-HO1 + SP + NK1 antagonist;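 also: values are the percentage of fibroblasts positive for each marker, with cultures grown in fresh healthy-donor blood plasma and each experiment run six times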
Protocol: as §1

[4] = tested on: fibroblasts (PHF) co-cultured with tumor cells, thyroid carcinoma (reference A-427); assay: Marker expression (IHC) in PHF co-cultured with thyroid carcinoma tumor cells; type: cell-based, human; details: co-culture with thyroid carcinoma cells; SP 1 μM + antagonist 1 μM; 48 h;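 also: grown in fresh plasma from a healthy human donor, read-out is percent of fibroblasts positive for each marker, compared with fibroblasts cultured alone, run in six replicates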
Protocol: as §1

[5] = tested on: fibroblasts (PHF) co-cultured with tumor cells, thyroid carcinoma; assay: as above; type: cell-based, human; details: co-culture with thyroid carcinoma cells; SP 1 μM + antagonist 1 μM; 48 h
Protocol: as §1

[6] = tested on: fibroblasts (PHF) co-cultured with tumor cells of human colon adenocarcinoma (SW-403); assay: Marker expression (IHC) in PHF co-cultured with SW-403 tumor cells; type: cell-based; details: co-culture with SW-403; SP 1 μM + antagonist 1 μM; 48 h
Protocol: All cultures were maintained 48 hours, following which the same cells were included in paraffin blocks for subsequent analysis of the expression of different markers by immunohistochemistry (see Example 1). The primary antibodies used to perform immunohistochemical assays and their concentration are detailed in Example 2. All experiments were carried out sixfold. Analyzed markers in fibroblast cells (stromal cells) were: TGF-α, TGF-β1, TGF-β2, TGF-β3, SPARC, MMP-3, MMP-7, MMP-9, MMP-11, MMP-13 and MMP-14.

[7] = tested on: human primary macrophages (PHM); assay: Marker expression (immunohistochemistry) in human primary macrophages with SP alone or with NK1 antagonists; type: cell-based; details: SP 1 μM + antagonist 1 μM; 48 h
[8] = tested on: fibroblasts (PHF) co-cultured with tumor cells, ovarian carcinoma (EFO-27); assay: Marker expression (IHC) in PHF co-cultured with EFO-27 tumor cells; type: cell-based, human; details: co-culture with EFO-27; SP 1 μM + antagonist 1 μM; 48 h;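 also: values are the percentage of PHF fibroblasts positive for each marker, cultured in fresh plasma from a healthy human donor, each experiment run in six replicates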
Protocol: as §1

[9] = tested on: fibroblasts (PHF) co-cultivated with tumor cell lymphoblastic leukemia B (SDI); assay: Marker expression (IHC) in PHF co-cultured with SDI tumor cells; type: cell-based, human; details: PHF co-cultivated with SDI + SP + NK1 antagonist
Protocol: as §1

[10] = tested on: fibroblasts of tumors produced by tumor cell line of human melanoma (MEL HO); assay: Marker expression (IHC) in fibroblasts of tumor or peritumoral area, mouse model, MEL HO; type: in vivo; details: MEL HO tumors in mice, 30 mg/kg/day oral, 7 days
Protocol: In vitro tests conducted in Example 5 are now carried out in an experimental model in mice in vivo. […] Subsequently, the expression in fibroblasts tumoral and peritumoral area of molecular markers associated with progression and maintenance of tumors: TGF-α, TGF-β1, TGF-β2, TGF-β3, MMP-7, MMP-11, MMP-14 were analyzed by immunohistochemistry.
Were injected with 2×10^7 cells tumors (corresponding, in each case to each of the tumor types as specified in Table 9) in 200 of PBS subcutaneously μl. […] Mice were randomized into two groups when the tumors reached a volume of 75 mm^3 One group was treated with non-peptide receptor antagonists NK1 and the other with placebo 200μ1. […] Tumors and samples of non-neoplastic stromal areas remote from the tumor were halved, formalin fixed (4%) and then were included in paraffin blocks for analysis by immunohistochemistry.
The expression on fibroblast cells obtained in the animal model was analyzed by immunohistochemistry, of the above markers: TGF-α, TGF-β1, TGF-β2, TGF-β3, MMP-7, MMP-1 1, MMP-14MP-14. Tables 32 to 35 depict the type of label used and the average percentage of fibroblasts present in non-tumor areas, tumor and peritumoral (±SD) which were expressing the marker shown in each of the tumor types developed from of the different cell lines used. This process was realized in mice treated with non-peptide antagonists of NK1 receptor and in untreated animals (control).

[11] = tested on: fibroblasts (PHF) cells co-cultured with human T lymphoma tumor (DERL-7); assay: Marker expression (IHC) in PHF co-cultured with DERL-7 tumor cells; type: cell-based; details: PHF co-cultured with DERL-7 + SP + NK1 antagonist
[12] = co-culture with cells isolated from breast carcinoma
[13] = co-culture with cells isolated from colon carcinoma
[14] = co-culture with cells isolated from lung carcinoma
[15] = co-culture with cells isolated from melanoma
[16] = co-culture with cells isolated from ovarian carcinoma

CC(=O)N1CCN([C@H]2CCN(C(=O)N(C)[C@H](C)c3cc(C(F)(F)F)cc(C(F)(F)F)c3)[C@@H](c3ccc(F)cc3C)C2)CC1 [Casopitant]
0%: Percentage of macrophages which expressed EGF [1, 12] | Percentage of macrophages which expressed MMP-9 [1, 12] | Percentage of macrophages which expressed VEGF [1, 12] | Percentage of macrophages which expressed EGF [1, 13] | Percentage of macrophages which expressed MMP-9 [1, 13] | Percentage of macrophages which expressed VEGF [1, 13] | Percentage of macrophages which expressed EGF [1, 14] | Percentage of macrophages which expressed MMP-9 [1, 14] | Percentage of macrophages which expressed VEGF [1, 14] | Percentage of macrophages which expressed EGF [1, 15] | Percentage of macrophages which expressed MMP-9 [1, 15] | Percentage of macrophages which expressed VEGF [1, 15] | Percentage of macrophages which expressed EGF [1, 16] | Percentage of macrophages which expressed MMP-9 [1, 16] | Percentage of macrophages which expressed VEGF [1, 16] | PHF cells expressing MMP-3 [2] | PHF cells expressing MMP-7 [2] | PHF cells expressing MMP-9 [2] | PHF cells expressing MMP-11 [2] | PHF cells expressing MMP-13 [2] | PHF cells expressing MMP-14 [2] | PHF cells expressing SPARC [2] | PHF cells expressing TGF-α [2] | PHF cells expressing TGF-β1 [2] | PHF cells expressing TGF-β2 [2] | PHF cells expressing TGF-β3 [2] | cells expressing MMP-3 [3] | cells expressing MMP-7 [3] | cells expressing MMP-9 [3] | cells expressing MMP-11 [3] | cells expressing MMP-13 [3] | cells expressing MMP-14 [3] | cells expressing SPARC [3] | cells expressing TGF-α [3] | cells expressing TGF-β1 [3] | cells expressing TGF-β2 [3] | cells expressing TGF-β3 [3] | PHF cells expressing MMP-3 [4] | PHF cells expressing MMP-7 [4] | PHF cells expressing MMP-9 [4] | PHF cells expressing MMP-13 [4] | PHF cells expressing MMP-14 [4] | PHF cells expressing SPARC [4] | PHF cells expressing TGF-α [4] | PHF cells expressing TGF-β1 [4] | PHF cells expressing TGF-β2 [4] | PHF cells expressing TGF-β3 [4] | PHF cells expressing MMP-11 [5] | PHF cells expressing MMP-3 [6] | PHF cells expressing MMP-7 [6] | PHF cells expressing MMP-9 [6] | PHF cells expressing MMP-11 [6] | PHF cells expressing MMP-13 [6] | PHF cells expressing MMP-14 [6] | PHF cells expressing SPARC [6] | PHF cells expressing TGF-α [6] | PHF cells expressing TGF-β1 [6] | PHF cells expressing TGF-β2 [6] | PHF cells expressing TGF-β3 [6] | macrophages expressing EGF [7] | macrophages expressing MMP-9 [7] | macrophages expressing VEGF [7] | PHF cells expressing MMP-3 [8] | PHF cells expressing MMP-7 [8] | PHF cells expressing MMP-9 [8] | PHF cells expressing MMP-11 [8] | PHF cells expressing MMP-13 [8] | PHF cells expressing MMP-14 [8] | PHF cells expressing SPARC [8] | PHF cells expressing TGF-α [8] | PHF cells expressing TGF-β1 [8] | PHF cells expressing TGF-β2 [8] | PHF cells expressing TGF-β3 [8] | cells expressing MMP-3 [9] | cells expressing MMP-7 [9] | cells expressing MMP-9 [9] | cells expressing MMP-11 [9] | cells expressing MMP-13 [9] | cells expressing MMP-14 [9] | cells expressing SPARC [9] | cells expressing TGF-α [9] | cells expressing TGF-β1 [9] | cells expressing TGF-β2 [9] | cells expressing TGF-β3 [9] | fibroblasts expressing MMP-7 [10] | fibroblasts expressing MMP-11 [10] | fibroblasts expressing MMP-14 [10] | fibroblasts expressing TGF-α [10] | fibroblasts expressing TGF-β 1 [10] | fibroblasts expressing TGF-β 2 [10] | fibroblasts expressing TGF-β 3 [10] | cells expressing MMP-3 [11] | cells expressing MMP-7 [11] | cells expressing MMP-9 [11] | cells expressing MMP-11 [11] | cells expressing MMP-13 [11] | cells expressing MMP-14 [11] | cells expressing SPARC [11] | cells expressing TGF-α [11] | cells expressing TGF-β1 [11] | cells expressing TGF-β2 [11] | cells expressing TGF-β3 [11]
